From PMC6792352, “Limited Chemical Structural Diversity Found to Modulate Thyroid Hormone Receptor in the Tox21 Chemical Library” (Environmental Health Perspectives, 2019)
Where a name gives a salt, the structure may show the parent alone.

Assay: in vitro
Conditions: rat, gh3-tre-luc cells, AC50 (uM) modified / 1000

**Q.** Which CC50 at 24 h does the source give for `c1ccc(C2CC2)c(OCC2=NCCN2)c1` [Cirazoline] here?
**A.** > 50 µM

**Q.** Which CC50 at 24 h does the source give for `O=C(/C=C/c1ccc(O)c(O)c1)O[C@@H](C(=O)O)[C@@H](OC(=O)/C=C/c1ccc(O)c(O)c1)C(=O)O` [L-Cichoric acid] here?
**A.** > 90 µM

**Q.** For `CN(C)CCn1nnnc1SCC1=C(C(=O)O)N2C(=O)[C@@H](NC(=O)Cc3csc(N)n3)[C@H]2SC1` [Cefotiam hydrochloride], which CC50 at 24 h is on record?
**A.** > 20 µM

**Q.** For `O=S(=O)(c1ccc(Cl)cc1)c1ccc(Cl)cc1` [4,4'-Dichlorodiphenyl sulfone], which CC50 at 24 h is on record?
**A.** > 90 µM

**Q.** Which CC50 at 24 h does the source give for `C#C[C@]1(O)CC[C@H]2[C@@H]3CCC4=CC(=O)CC[C@@H]4[C@H]3C(=C)C[C@@]21CC` [Etonogestrel] here?
**A.** > 50 µM

**Q.** For `CCCCNS(=O)(=O)c1ccc(C)cc1` [N-Butyl-p-toluenesulfonamide], which CC50 at 24 h is on record?
**A.** > 90 µM

**Q.** For `C[C@]1(Cn2ccnn2)[C@H](C(=O)O)N2C(=O)C[C@H]2S1(=O)=O` [Tazobactam sodium], which CC50 at 24 h is on record?
**A.** > 50 µM

**Q.** Which CC50 at 24 h does the source give for `C1CCC(SSC2CCCCC2)CC1` [Dicyclohexyl disulfide] here?
**A.** > 90 µM

**Q.** With `C=CC(=O)CCCCC` [1-Octen-3-one] as the compound, how does the CC50 at 24 h read?
**A.** > 100 µM

**Q.** Which CC50 at 24 h does the source give for `C=C(C)C(=O)OCC(C)O` (stereo not shown) [2-Hydroxypropyl 2-methylacrylate] here?
**A.** > 90 µM

**Q.** Which CC50 at 24 h does the source give for `CC(=O)Nc1ccccc1C` [N-Acetyl-o-toluidine] here?
**A.** > 100 µM

**Q.** For `CCC(=O)Nc1ccc(O)cc1` [Parapropamol], which CC50 at 24 h is on record?
**A.** > 50 µM

**Q.** Which CC50 at 24 h does the source give for `O=c1[nH]c(=O)n([C@H]2CCCO2)cc1F` [Tegafur] here?
**A.** > 90 µM

**Q.** For `CC(C)(C)NC[C@H](O)COc1nsnc1N1CCOCC1` [(S)-Timolol], which CC50 at 24 h is on record?
**A.** > 50 µM

**Q.** With `Oc1cc(Cl)ccc1Cl` [2,5-Dichlorophenol] as the compound, how does the CC50 at 24 h read?
**A.** > 90 µM

**Q.** Which CC50 at 24 h does the source give for `C#C[C@]1(O)C=C[C@H]2[C@@H]3CCC4=CC(=O)CC[C@@H]4[C@H]3CC[C@@]21CC` [Gestodene] here?
**A.** > 50 µM

**Q.** Which CC50 at 24 h does the source give for `Fc1ccccc1` [Fluorobenzene] here?
**A.** > 90 µM

**Q.** For `OC1CCCCCCCCCCC1` [Cyclododecanol], which CC50 at 24 h is on record?
**A.** > 90 µM

**Q.** With `CCCC(C)c1ccccc1O` (stereo not shown) [2-(1-Methylbutyl)phenol] as the compound, how does the CC50 at 24 h read?
**A.** 54.4 µM

**Q.** Which CC50 at 24 h does the source give for `CCCCCNCCCCC` [Dipentylamine] here?
**A.** > 90 µM

**Q.** With `ClC(Cl)=C(Cl)C(Cl)=C(Cl)Cl` [Hexachloro-1,3-butadiene] as the compound, how does the CC50 at 24 h read?
**A.** > 90 µM

**Q.** Which CC50 at 24 h does the source give for `O=C(O)CCCOc1ccc(Cl)cc1Cl` [2,4-DB-sodium] here?
**A.** > 90 µM

**Q.** Which CC50 at 24 h does the source give for `C=C(C)c1cccc(C(C)(C)N=C=O)c1` [1-(2-Isocyanatopropan-2-yl)-3-(prop-1-en-2-yl)benzene] here?
**A.** > 90 µM

**Q.** With `NNC(=S)NN` [Thiocarbazide] as the compound, how does the CC50 at 24 h read?
**A.** > 90 µM

**Q.** For `Nc1ccccc1[N+](=O)[O-]` [2-Nitroaniline], which CC50 at 24 h is on record?
**A.** > 90 µM

**Q.** With `COc1cccc(Br)c1` [1-Bromo-3-methoxybenzene] as the compound, how does the CC50 at 24 h read?
**A.** > 90 µM

**Q.** With `C=C(C)c1cccc(C(=C)C)c1` [1,3-Diisopropenylbenzene] as the compound, how does the CC50 at 24 h read?
**A.** > 90 µM

**Q.** Which CC50 at 24 h does the source give for `CC[C@H](C)[C@H]1O[C@]2(CC[C@@H]1C)C[C@@H]1C[C@@H](C/C=C(\C)[C@@H](O[C@H]3C[C@H](OC)[C@@H](O[C@H]4C[C@H](OC)[C@@H](O)[C@H](C)O4)[C@H](C)O3)[C@@H](C)/C=C/C=C3\CO[C@@H]4[C@H](O)C(C)=C[C@@H](C(=O)O1)[C@]34O)O2` [Ivermectin B1a] here?
**A.** 2.85 µM

**Q.** With `CC(CCC(=O)O)(c1ccc(O)cc1)c1ccc(O)cc1` [Diphenolic acid] as the compound, how does the CC50 at 24 h read?
**A.** > 90 µM

**Q.** Which CC50 at 24 h does the source give for `CCCCCC` [n-Hexane] here?
**A.** > 90 µM

**Q.** For `CC(=O)OC/C=C(\C)CC/C=C(\C)CCC=C(C)C` [trans,trans-Farnesyl acetate], which CC50 at 24 h is on record?
**A.** > 90 µM

**Q.** Which CC50 at 24 h does the source give for `COC(=O)/C=C/c1ccccc1` [Methyl (E)-cinnamate] here?
**A.** > 90 µM

**Q.** With `CCCCCCCCSC(=O)Oc1cc(Cl)nnc1-c1ccccc1` [Pyridate] as the compound, how does the CC50 at 24 h read?
**A.** > 90 µM

**Q.** Which CC50 at 24 h does the source give for `CC(C)=C1CC[C@@H](C)CC1=O` [R-(+)-Pulegone] here?
**A.** > 90 µM

**Q.** For `Cc1ccccc1C` [o-Xylene], which CC50 at 24 h is on record?
**A.** > 90 µM

**Q.** For `CC(=O)c1ccc(OCC(=O)N2CCCCC2)cc1` [4'-Piperidinylcarbonylmethoxyacetophenone], which CC50 at 24 h is on record?
**A.** > 50 µM

**Q.** For `O=C1c2ccccc2C(=O)c2cc(Cl)ccc21` [2-Chloroanthraquinone], which CC50 at 24 h is on record?
**A.** > 5 µM

**Q.** Which CC50 at 24 h does the source give for `O=C(Nc1ccccc1)Nc1ccnc(Cl)c1` [Forchlorfenuron] here?
**A.** 64.7 µM

**Q.** With `CCc1cc(C(N)=S)ccn1` [Ethionamide] as the compound, how does the CC50 at 24 h read?
**A.** > 50 µM

**Q.** For `CCN(CC)CCC(=O)N1c2ccccc2Sc2ccc(C(F)(F)F)cc21` [Fluacizine], which CC50 at 24 h is on record?
**A.** 20.5 µM

**Q.** Which CC50 at 24 h does the source give for `CC(C)COC(=O)c1ccccc1` [Isobutyl benzoate] here?
**A.** > 90 µM

**Q.** Which CC50 at 24 h does the source give for `COP(=O)(OC)OC(c1ccc(Cl)cc1)P(=O)(OC)OC` (stereo not shown) [Mifobate] here?
**A.** > 50 µM

**Q.** For `CN(C)C1CSSSC1` [Thiocyclam oxalate], which CC50 at 24 h is on record?
**A.** > 90 µM

**Q.** Which CC50 at 24 h does the source give for `O=C1NC2CCCCN2C12CCN(CCCN1c3ccccc3CCc3ccc(Cl)cc31)CC2` (stereo not shown) [Mosapramine] here?
**A.** 5.62 µM

**Q.** For `CC1=CC(=O)[C@H]2C[C@@H]1C2(C)C` [L-Verbenone], which CC50 at 24 h is on record?
**A.** > 90 µM

**Q.** For `CCOC(=O)[C@H](CCc1ccccc1)N[C@@H](C)C(=O)N(CC(=O)O)C1Cc2ccccc2C1` [Delapril hydrochloride], which CC50 at 24 h is on record?
**A.** > 50 µM

**Q.** For `O=C(O)C(Cl)(Cl)Cl` [Trichloroacetic acid], which CC50 at 24 h is on record?
**A.** > 90 µM

**Q.** Which CC50 at 24 h does the source give for `[O-][n+]1cc[n+]([O-])c2ccccc21` [Quindoxin] here?
**A.** > 50 µM

**Q.** With `CC(C)(C)C(=O)C(Cl)Cl` [Dichloropinacolin] as the compound, how does the CC50 at 24 h read?
**A.** > 90 µM

**Q.** For `CCCCC(=O)O` [Pentanoic acid], which CC50 at 24 h is on record?
**A.** > 90 µM

**Q.** With `O=C(Nc1cccc2c(=O)cc(-c3nnn[nH]3)oc12)c1ccc(OCCCCc2ccccc2)cc1` [Pranlukast] as the compound, how does the CC50 at 24 h read?
**A.** > 50 µM

**Q.** With `C[C@@H](O)C(=O)O` [D-Lactic acid] as the compound, how does the CC50 at 24 h read?
**A.** > 100 µM

**Q.** For `Nc1nc(N)c2nc(CNc3ccc(C(=O)N[C@@H](CCC(=O)O)C(=O)O)cc3)cnc2n1` [4-Aminofolic acid], which CC50 at 24 h is on record?
**A.** > 50 µM

**Q.** Which CC50 at 24 h does the source give for `C[C@@H](O)[C@H]1C(=O)N2C(C(=O)O)=C(S[C@@H]3CN[C@H](C(=O)N(C)C)C3)[C@H](C)[C@H]12` [Meropenem] here?
**A.** > 50 µM

**Q.** For `O=C(O)CCS` [3-Mercaptopropanoic acid], which CC50 at 24 h is on record?
**A.** > 90 µM

**Q.** For `CCCCCCOc1ccc(O)cc1` [4-(Hexyloxy)phenol], which CC50 at 24 h is on record?
**A.** 25.3 µM

**Q.** With `CC(C)C1OCCN1CCOC(=O)NCCCCCCNC(=O)OCCN1CCOC1C(C)C` (stereo not shown) [Bis{2-[2-(propan-2-yl)-1,3-oxazolidin-3-yl]ethyl} hexane-1,6-diylbiscarbamate] as the compound, how does the CC50 at 24 h read?
**A.** > 90 µM

**Q.** Which CC50 at 24 h does the source give for `OCC(O)[C@@H](O)[C@H](O)[C@H](O)CO[C@H]1O[C@H](CO)[C@@H](O)[C@H](O)[C@H]1O` (stereo partly shown) [Isomalt] here?
**A.** > 90 µM

**Q.** Which CC50 at 24 h does the source give for `CCCCCCCCS(=O)(=O)Cl` [1-Octanesulfonyl chloride] here?
**A.** > 90 µM

Same assay, conditions: rat, gh3-tre-luc cells, AC50 (uM) modified / 1000, Tox21_110001=Tox21_110815; viability, 1 nM T3 present, 24 h

**Q.** Which CC50 at 24 h does the source give for `COc1ccc2c(c1OC)C(=O)O[C@H]2[C@@H]1c2cc3c(cc2CCN1C)OCO3` [(1S,9R)-beta-Hydrastine] here?
**A.** > 50 µM

Same assay, conditions: rat, gh3-tre-luc cells, AC50 (uM) modified / 1000, Tox21_110001=Tox21_110905; viability, 1 nM T3 present, 24 h

**Q.** For `C=C(C)[C@H]1CN[C@H](C(=O)O)[C@H]1CC(=O)O` [Kainic acid], which CC50 at 24 h is on record?
**A.** > 50 µM

Same assay, conditions: rat, gh3-tre-luc cells, AC50 (uM) modified / 1000, Tox21_110001=Tox21_113271; viability, 1 nM T3 present, 24 h

**Q.** With `CCOC(=O)NC(C)(C)Cc1ccc(Cl)cc1` [Cloforex] as the compound, how does the CC50 at 24 h read?
**A.** > 50 µM

Same assay, conditions: rat, gh3-tre-luc cells, AC50 (uM) modified / 1000, Tox21_110001=Tox21_201288; viability, 1 nM T3 present, 24 h

**Q.** With `Brc1ccc(Br)cc1` [1,4-Dibromobenzene] as the compound, how does the CC50 at 24 h read?
**A.** > 90 µM

Same assay, conditions: rat, gh3-tre-luc cells, AC50 (uM) modified / 1000, Tox21_110001=Tox21_201486; viability, 1 nM T3 present, 24 h

**Q.** With `Cn1c(-c2ccccc2)cc(-c2ccccc2)[n+]1C` [Difenzoquat metilsulfate] as the compound, how does the CC50 at 24 h read?
**A.** > 90 µM

Same assay, conditions: rat, gh3-tre-luc cells, AC50 (uM) modified / 1000, Tox21_110001=Tox21_201837; viability, 1 nM T3 present, 24 h

**Q.** Which CC50 at 24 h does the source give for `CN(C)P(=O)(N(C)C)N(C)C` [Hexamethylphosphoramide] here?
**A.** > 90 µM

Same assay, conditions: rat, gh3-tre-luc cells, AC50 (uM) modified / 1000, Tox21_110001=Tox21_300253; viability, 1 nM T3 present, 24 h

**Q.** Which CC50 at 24 h does the source give for `O=C(NC(=O)c1cc(F)c(F)cc1Cl)Nc1cc(F)ccc1N1CCC(C(=O)O)CC1` [AVE2865] here?
**A.** > 50 µM

Same assay, conditions: rat, gh3-tre-luc cells, AC50 (uM) modified / 1000, Tox21_110001=Tox21_300595; viability, 1 nM T3 present, 24 h

**Q.** With `O=C(O)C(F)(F)C(F)(F)C(F)(F)C(F)(F)C(F)(F)C(F)(F)C(F)(F)F` [Ammonium perfluorooctanoate] as the compound, how does the CC50 at 24 h read?
**A.** > 90 µM
